According to ChEMBL document CHEMBL6127075, “Tetrazoles: A multi-potent motif in drug design” (Eur J Med Chem, 2024):
In brackets after ≈: the same amount, converted by molar mass.

Tests used:
[1] = target: Type-1 angiotensin II receptor (Homo sapiens) (UniProt P30556); assay: Inhibition of Angiotensin-2 receptor (unknown origin)
[2] = target: T1, Tyrosine-protein phosphatase non-receptor type 1 (Homo sapiens, UniProt P18031); assay: Inhibition of PTP1B (unknown origin)
T1 sequence (P18031 whole entry): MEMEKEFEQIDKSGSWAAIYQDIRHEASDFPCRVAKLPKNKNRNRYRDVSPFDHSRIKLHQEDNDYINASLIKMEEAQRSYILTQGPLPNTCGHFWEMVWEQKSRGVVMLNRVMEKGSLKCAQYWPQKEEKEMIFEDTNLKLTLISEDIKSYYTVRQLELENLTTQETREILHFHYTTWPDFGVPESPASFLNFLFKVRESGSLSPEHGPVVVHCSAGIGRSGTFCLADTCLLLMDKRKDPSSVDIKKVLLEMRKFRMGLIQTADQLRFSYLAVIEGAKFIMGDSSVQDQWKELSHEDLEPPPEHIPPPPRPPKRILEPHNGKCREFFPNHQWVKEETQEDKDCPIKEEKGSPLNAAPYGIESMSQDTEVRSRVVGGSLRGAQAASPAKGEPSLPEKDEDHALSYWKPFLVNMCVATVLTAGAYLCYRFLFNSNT

[3] = test system: PC-3; assay: Antiproliferative activity against human PC-3 cells assessed as inhibition of cell growth measured after 24 hrs by MTT assay; format: functional, cell-based; conditions: PC-3, 24 h
[4] = test system: DU-145; assay: Antiproliferative activity against human DU-145 cells assessed as inhibition of cell growth measured after 24 hrs by MTT assay; format: functional, cell-based; conditions: DU-145, 24 h
[5] = Antiproliferative activity against human RWPE-1 cells assessed as inhibition of cell growth measured after 24 hrs by MTT assay; format: toxicity, cell-based
[6] = test system: Escherichia coli; assay: Antimicrobial activity against Escherichia coli NCTC 8196 assessed as reduction in microbial growth measured fro 18 hrs by two-fold serial dilution method; format: functional
[7] = test system: Escherichia coli; assay: Antibacterial activity against Escherichia coli ATCC 25922 assessed as reduction in microbial growth by incubated for 18 hrs CLSI based broth microdilution method; format: functional
[8] = test system: Staphylococcus epidermidis; assay: Antibacterial activity against Staphylococcus epidermidis ATCC 12228 assessed as reduction in microbial growth by incubated for 18 hrs CLSI based broth microdilution method; format: functional
[9] = test system: HUVEC; assay: Antiproliferative activity against HUVEC cells assessed as inhibition of cell proliferation incubated for 72 hrs by Cell Titer Luminescence assay; format: functional, cell-based; conditions: Homo sapiens
[10] = test system: HepG2; assay: Cytotoxicity against human HepG2 cells assessed as reduction in cell viability incubated for 24 hrs by MTT assay; format: functional, cell-based; conditions: HepG2, 24 h
[11] = test system: MCF7; assay: Cytotoxicity against human MCF7 cells assessed as reduction in cell viability incubated for 24 hrs by MTT assay; format: functional, cell-based; conditions: MCF7, 24 h
[12] = test system: PC-3; assay: Cytotoxicity against human PC-3 cells assessed as reduction in cell growth incubated for 24 hrs by MTT assay; format: functional, cell-based; conditions: PC-3, 24 h
[13] = test system: CCRF-CEM; assay: Cytotoxicity against human CCRF-CEM cells assessed as reduction in cell growth at 25 uM incubated for 48 hrs by MTT assay relative to control; format: functional; set-up: scale not given: the % may be the effect or the level left
[14] = test system: MCF7; assay: Cytotoxicity against human MCF7 cells assessed as reduction in cell growth at 25 uM incubated for 48 hrs by MTT assay relative to control; format: functional; set-up: scale not given: the % may be the effect or the level left
[15] = Antioxidant activity assessed as DPPH radical scavenging activity after 30 mins by spectrophotometric analysis; format: functional
[16] = test system: Staphylococcus aureus; assay: Antibacterial activity against Staphylococcus aureus ATCC 29213 assessed as bacterial growth inhibition incubated for 24 hrs by broth dilution method; format: functional
[17] = test system: Staphylococcus epidermidis; assay: Antibacterial activity against Staphylococcus epidermidis ATCC 12228 assessed as bacterial growth inhibition incubated for 24 hrs by broth dilution method; format: functional
[18] = test system: Escherichia coli; assay: Antibacterial activity against Escherichia coli ATCC 25922 assessed as bacterial growth inhibition incubated for 24 hrs by broth dilution method; format: functional
[19] = test system: Pseudomonas aeruginosa; assay: Antimicrobial activity against Pseudomonas aeruginosa ATCC 27853 assessed as inhibition of microbial growth incubated for 24 hrs by broth microdilution method; format: functional
[20] = test system: Staphylococcus aureus; assay: Antibacterial activity against Staphylococcus aureus MTCC-96 assessed as bacterial growth inhibition after 24 hrs by broth macro dilution method; format: functional
[21] = test system: Staphylococcus aureus; assay: Antibacterial activity against Staphylococcus aureus MTCC-739 assessed as bacterial growth inhibition after 24 hrs by broth macro dilution method; format: functional
[22] = test system: Micrococcus luteus; assay: Antibacterial activity against Micrococcus luteus assessed as bacterial growth inhibition after 24 hrs by broth macro dilution method; format: functional
[23] = test system: Escherichia coli; assay: Antibacterial activity against Escherichia coli assessed as bacterial growth inhibition after 24 hrs by broth macro dilution method; format: functional
[24] = test system: Pseudomonas aeruginosa; assay: Antibacterial activity against Pseudomonas aeruginosa assessed as bacterial growth inhibition after 24 hrs by broth macro dilution method; format: functional
[25] = test system: Pichia kudriavzevii; assay: Antifungal activity against Candida krusei ATCC 6258 assessed as inhibition of fungal growth incubated for 24 hrs by microtiter plate reader assay; format: functional
[26] = target: Cholinesterase (Homo sapiens, UniProt P06276); assay: Inhibition of BChE (unknown origin) using acetylthiocholine iodide as substrate preincubated for 20 mins followed by substrate addition and measured after 5 mins by Ellman's method
[27] = test system: Nannizzia gypsea; assay: Antifungal activity against Microsporum gypseum assessed as reduction in fungal growth; format: functional
[28] = test system: Staphylococcus aureus; assay: Antibacterial activity against Staphylococcus aureus assessed as reduction in microbial growth by CLSI based broth microdilution method; format: functional
[29] = test system: Aspergillus flavus; assay: Antifungal activity against Aspergillus flavus assessed as inhibition of fungal growth; format: functional
[30] = Antagonist activity at NMDA receptor (unknown origin); set-up: species or system Homo sapiens

Type-1 angiotensin II receptor (Homo sapiens), sequence (P30556 whole entry, looked up): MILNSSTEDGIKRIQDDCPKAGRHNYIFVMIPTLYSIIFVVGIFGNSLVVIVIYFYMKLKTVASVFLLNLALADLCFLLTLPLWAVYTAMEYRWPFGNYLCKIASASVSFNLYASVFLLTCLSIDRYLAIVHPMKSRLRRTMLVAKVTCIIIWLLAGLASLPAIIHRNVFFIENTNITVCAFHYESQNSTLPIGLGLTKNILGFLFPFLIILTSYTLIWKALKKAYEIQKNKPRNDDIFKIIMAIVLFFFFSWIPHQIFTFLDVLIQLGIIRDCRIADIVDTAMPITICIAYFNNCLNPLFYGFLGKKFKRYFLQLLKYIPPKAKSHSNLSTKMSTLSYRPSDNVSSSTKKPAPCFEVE
Cholinesterase, sequence (P06276 whole entry): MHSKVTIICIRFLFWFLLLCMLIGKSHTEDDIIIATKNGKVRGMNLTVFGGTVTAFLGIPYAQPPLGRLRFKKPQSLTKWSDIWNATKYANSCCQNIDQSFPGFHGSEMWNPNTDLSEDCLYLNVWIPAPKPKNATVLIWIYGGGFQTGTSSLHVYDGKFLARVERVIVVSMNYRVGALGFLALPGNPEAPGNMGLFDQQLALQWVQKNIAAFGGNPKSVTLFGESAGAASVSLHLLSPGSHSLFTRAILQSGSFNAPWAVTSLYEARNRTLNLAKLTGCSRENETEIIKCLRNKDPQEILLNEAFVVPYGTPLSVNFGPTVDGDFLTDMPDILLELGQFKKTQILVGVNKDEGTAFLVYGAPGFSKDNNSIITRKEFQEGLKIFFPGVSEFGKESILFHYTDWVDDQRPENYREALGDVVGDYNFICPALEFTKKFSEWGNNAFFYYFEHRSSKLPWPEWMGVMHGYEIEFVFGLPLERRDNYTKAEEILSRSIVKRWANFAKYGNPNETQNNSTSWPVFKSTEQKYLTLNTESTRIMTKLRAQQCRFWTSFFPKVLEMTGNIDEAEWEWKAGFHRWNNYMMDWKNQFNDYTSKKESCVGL

O=P(O)(O)CN[C@@H](Cc1ccc(-c2ccccc2)cc1)c1nnn[nH]1
IC50 [1]: 0.0009 µM

OC1C2CC3CC1CC(C2)C3(Cc1nnn[nH]1)c1ccc(-c2ccc(F)cc2)cc1 (stereo not drawn)
IC50 [2]: 0.0037 µM

O=C1N(Cc2ccc(Br)cc2)c2ccccc2C1(O)Cc1nnn[nH]1 (stereo not drawn)
IC50 [3]: 10.1 µM | IC50 [4]: 11.7 µM | IC50 at 24 h [5]: 76 µM

Cc1ccc(-n2nnnc2NCc2ccco2)cc1Cl
MIC [6]: 2 µg/mL | MIC [7]: 2 µg/mL | MIC [8]: 2 µg/mL

Fc1ccc(-n2nnnc2NCc2ccco2)cc1Cl
MIC [6]: 2 µg/mL | MIC [7]: 2 µg/mL | MIC [8]: 2 µg/mL

CCC(C)n1ncn(-c2ccc(N3CCN(c4ccc(OC[C@@H]5CO[C@@](Cn6ncnn6)(c6ccc(Cl)cc6Cl)O5)cc4)CC3)cc2)c1=O (stereo partly drawn)
IC50 [9]: 0.073 µM

Clc1ccc(-c2nnn(-c3[se]nnc3-c3ccc(Cl)cc3)n2)cc1
IC50 [10]: 43.2 µM | IC50 [11]: 43.2 µM

Clc1ccc(-c2nn[se]c2-n2nnc(-c3ccccc3)n2)cc1
IC50 [10]: 43.2 µM | IC50 [11]: 43.2 µM

Clc1ccc(-c2nn[se]c2-n2nnc(-c3ccccc3Cl)n2)cc1
IC50 [10]: 43.2 µM | IC50 [11]: 43.2 µM

O=C(O)Cn1nnc(-c2cn(-c3ccccc3)nc2-c2ccc(Cl)cc2)n1
IC50 [12]: 6.43 µM

Clc1ccccc1-c1nnnn1CCCn1cnc2c(Br)c(Br)c(Br)c(Br)c21
Activity [13]: <1% | Activity [14]: <1%

Brc1c(Br)c(Br)c2c(ncn2CCCn2nnnc2-c2ccccc2)c1Br
Activity [13]: <1% | Activity [14]: <1%

O=S(=O)(c1ccccc1)n1nnc(CCSc2cc3ccccc3[nH]2)n1
IC50 [15]: 27.63 µg/mL (≈ 71.7 µM)

CC1=C(C)C2(C)CC1(C)C1C(=O)N(Nc3nnnn3-c3ccccc3Cl)C(=O)C12 (stereo not drawn)
MIC [16]: 0.4 µg/mL (≈ 0.969 µM) | MIC [17]: 0.4 µg/mL (≈ 0.969 µM) | MIC [18]: 0.4 µg/mL (≈ 0.969 µM) | MIC [19]: 0.4 µg/mL

Cn1ncc2cc(-n3cc(CSc4nnnn4-c4ccc(F)cc4F)nn3)ccc21
MIC [20]: 5 µg/mL (≈ 11.8 µM) | MIC [21]: 5 µg/mL (≈ 11.8 µM) | MIC [22]: 5 µg/mL (≈ 11.8 µM) | MIC [23]: 5 µg/mL (≈ 11.8 µM) | MIC [24]: 5 µg/mL (≈ 11.8 µM)

Cc1cn(C2OC(CO)CC2n2nnnc2Cc2c[nH]c3ccccc23)c(=O)[nH]c1=O (stereo not drawn)
IC50 [15]: 25.87 µg/mL (≈ 61.1 µM)

CC1=C(C)C2(C)CC1(C)C1C(=O)N(Nc3nnnn3-c3cccc(C(F)(F)F)c3)C(=O)C12 (stereo not drawn)
MIC [16]: 0.4 µg/mL (≈ 0.896 µM) | MIC [17]: 0.4 µg/mL (≈ 0.896 µM) | MIC [18]: 0.4 µg/mL (≈ 0.896 µM) | MIC [19]: 0.4 µg/mL

Cc1cn(C2OC(CO)CC2n2nnnc2-c2cccnc2Cl)c(=O)[nH]c1=O (stereo not drawn)
IC50 [15]: 25.87 µg/mL (≈ 63.8 µM)

Clc1ncccc1-c1nnn[nH]1
IC50 [15]: 27.63 µg/mL (≈ 152 µM)

Cn1ncc2cc(-n3cc(CSc4nnnn4-c4cccc(O)c4)nn3)ccc21
MIC [20]: 5 µg/mL (≈ 12.3 µM) | MIC [21]: 5 µg/mL (≈ 12.3 µM) | MIC [22]: 5 µg/mL (≈ 12.3 µM) | MIC [23]: 5 µg/mL (≈ 12.3 µM) | MIC [24]: 5 µg/mL (≈ 12.3 µM)

Fc1ccccc1-n1nnnc1NCc1ccco1
MIC [6]: 2 µg/mL | MIC [7]: 2 µg/mL | MIC [8]: 2 µg/mL

COc1ccc(-c2nnc(C[Se]c3nnn[nH]3)o2)cc1
IC50 [15]: 27.63 µg/mL (≈ 81.9 µM)

Cn1ncc2cc(-n3cc(CSc4nnnn4-c4cccc(F)c4)nn3)ccc21
MIC [20]: 5 µg/mL (≈ 12.3 µM) | MIC [21]: 5 µg/mL (≈ 12.3 µM) | MIC [22]: 5 µg/mL (≈ 12.3 µM) | MIC [23]: 5 µg/mL (≈ 12.3 µM) | MIC [24]: 5 µg/mL (≈ 12.3 µM)

Cn1nnnc1SCC(=O)N1CCN(C2CCCCC2)CC1
MIC [25]: 3.9 µg/mL (≈ 12 µM)

COc1ccccc1C1=C(C#N)/C(=C(/C)c2nnn[nH]2)NC(C)(c2ccccc2OC)C1 (stereo not drawn)
IC50 [26]: 0.29 µM

O=P(O)(O)CN[C@@H](Cc1ccc2oc3ccccc3c2c1)c1nnn[nH]1
IC50 [1]: 0.006 µM

Cn1ncc2cc(-n3cc(CSc4nnnn4-c4cccc([N+](=O)[O-])c4)nn3)ccc21
MIC [20]: 5 µg/mL (≈ 11.5 µM) | MIC [21]: 5 µg/mL (≈ 11.5 µM) | MIC [22]: 5 µg/mL (≈ 11.5 µM) | MIC [23]: 5 µg/mL (≈ 11.5 µM) | MIC [24]: 5 µg/mL (≈ 11.5 µM) | MIC [27]: 11 µg/mL (≈ 25.3 µM)

CC1=C(C)C2(C)CC1(C)C1C(=O)N(Nc3nnnn3-c3ccccc3Br)C(=O)C12 (stereo not drawn)
MIC [16]: 0.4 µg/mL (≈ 0.875 µM) | MIC [17]: 0.4 µg/mL (≈ 0.875 µM) | MIC [18]: 0.4 µg/mL (≈ 0.875 µM) | MIC [19]: 0.4 µg/mL | MIC [28]: 0.1 µg/mL

COc1ccc(-n2nnnc2SCc2cn(-c3ccc4c(cnn4C)c3)nn2)cc1
MIC [29]: 10 µg/mL (≈ 23.8 µM)

C1=C(c2nnn(Cc3cn(Cc4ccccc4)nn3)n2)COc2ccccc21
IC50 [15]: 27.63 µg/mL (≈ 74.4 µM)

O=C(O)[C@H]1C[C@@H](Cc2nnn[nH]2)CCN1 (single isomer, unassigned)
IC50 [30]: 0.1 µM

COc1cccc2c1C(=O)c1c(O)c3c(c(O)c1C2=O)C[C@@](O)(C(=O)CO)C[C@@H]3O[C@H]1C[C@H](N)[C@H](O)[C@H](C)O1 [DOXORUBICIN]
IC50 [12]: 2.24 µM

OC(Cn1cncn1)(Cn1cncn1)c1ccc(F)cc1F [FLUCONAZOLE]
MIC [25]: 7.8 µg/mL (≈ 25.5 µM)

CO/N=C1\CN(c2nc3c(cc2F)c(=O)c(C(=O)O)cn3C2CC2)CC1CN (stereo not drawn) [GEMIFLOXACIN]
MIC [23]: 10 µg/mL (≈ 25.7 µM) | MIC [24]: 10 µg/mL (≈ 25.7 µM)

CCC(C)n1ncn(-c2ccc(N3CCN(c4ccc(OCC5COC(Cn6cncn6)(c6ccc(Cl)cc6Cl)O5)cc4)CC3)cc2)c1=O (stereo not drawn) [ITRACONAZOLE]
MIC [27]: 10 µg/mL (≈ 14.2 µM) | MIC [29]: 8 µg/mL (≈ 11.3 µM)

C[C@@H](c1ncncc1F)[C@](O)(Cn1cncn1)c1ccc(F)cc1F [VORICONAZOLE]
MIC [25]: 3.9 µg/mL (≈ 11.2 µM)
